According to the OligoGym collection:
Several values for one entry are separate records, joined by “and”; a condition that tells them apart may be missing. Equal values may be shown once. After the bases stand the sugars from the 5' end (letter, count) and the backbone: PS all phosphorothioate, else s phosphorothioate and o phosphodiester by linkage. Methylation of C is not given here. e = 2'-O-(2-methoxyethyl) (MOE); k = constrained ethyl (cEt); d = 2'-deoxy (DNA)

Molecular target: IRF4
Conditions: ASO

| Sequence | target mRNA inhibition (MM.1R, 1 µM) | target mRNA inhibition (SK-MEL-28, 4 µM) | also measured |
| --- | --- | --- | --- |
| AAGTTCATGTAAAGTC (sugars kdddddddddkekeke, PS) | 14% and 21% | – | – |
| TCCATAGATCAACATG (sugars k3 d10 k3, PS) | – | 45% | – |
| CGTAGTCCCTCCAGCT (sugars k3 d10 k3, PS) | 27% | – | – |
| AGAAAACCCCCCTCTC (sugars k3 d10 k3, PS) | – | 23% | – |
| GCATTTTATCATCCGA (sugars kdddddddddkekeke, PS) | 23% | – | – |
| TAACTGTATGGAACCC (sugars k3 d10 k3, PS) | 28% | – | – |
| TCAACTTGTGACCCAC (sugars k3 d10 k3, PS) | 14% | – | – |
| AATGAACGGAAGTTTA (sugars k3 d10 k3, PS) | – | 33% | – |
| AGATCTGTGGTAATCT (sugars k3 d10 k3, PS) | -3% | – | – |
| ATTTATGCCCTCGCTC (sugars k3 d10 k3, PS) | – | 26% | – |
| TGCTGATCCTGGGAGT (sugars k3 d10 k3, PS) | – | 79% | – |
| CTGCATCAAATCAAGT (sugars k3 d10 k3, PS) | – | 47% | – |
| CAGAAGTACGAGCACA (sugars k3 d10 k3, PS) | – | 47% | – |
| TAGGTGCTTGTTGAAT (sugars k3 d10 k3, PS) | – | 50% | – |
| CAAAGACCAGCTTTTT (sugars k3 d10 k3, PS) | – | 50% | – |
| ACTGCTTGAGGTTTTC (sugars k3 d10 k3, PS) | – | 58% | – |
| GCTGTCGATCTGGTCG (sugars k3 d10 k3, PS) | – | 9% | – |
| CACTCAGCAAGTGTCT (sugars k3 d10 k3, PS) | – | 50% | – |
| GGCTAATGAAATGTCA (sugars k3 d10 k3, PS) | – | 64% | – |
| ACCGGTAGAGTGAGAT (sugars k3 d10 k3, PS) | 16% and 2% | – | – |
| GACTGACAGCCGAAGC (sugars k3 d10 k3, PS) | 27% | – | – |
| GTAACAACGACACACG (sugars k3 d10 k3, PS) | – | 59% | – |
| GCAGCTCCTACATACA (sugars k3 d10 k3, PS) | – | 53% | – |
| ATATTCCAACAGGCGG (sugars k3 d10 k3, PS) | – | 53% | – |
| GGTCTGAGTTGTACAG (sugars k3 d10 k3, PS) | 20% | – | – |
| TCAAAGTCATTGCTCT (sugars k4 d8 k4, PS) | – | 57% | target mRNA inhibition (MM.1R, 0.074 µM): -3%; target mRNA inhibition (MM.1R, 0.222 µM): 6%; target mRNA inhibition (MM.1R, 0.666 µM): 6%; target mRNA inhibition (MM.1R, 2 µM): 13%; target mRNA inhibition (SK-MEL-28, 0.185 µM): 4% and -4% and 0% |

| Sequence | target mRNA inhibition (MM.1R, 1 µM) | target mRNA inhibition (SK-MEL-28, 4 µM) | also measured |
| --- | --- | --- | --- |
| TCAGACTGTGCTGCTC (sugars k3 d10 k3, PS) | – | 36% | – |
| TTGGTTGGCTGGTCTT (sugars k3 d10 k3, PS) | 76% and 72% | – | target mRNA inhibition (MM.1R, 0.0625 µM): 40%; target mRNA inhibition (MM.1R, 0.25 µM): 58%; target mRNA inhibition (MM.1R, 4 µM): 89% |
| ACCTCAGTTTGTGAAG (sugars kkdddddddddkekek, PS) | 13% | – | – |
| ATCCACTGGCACCAAG (sugars k3 d10 k3, PS) | 5% | – | – |
| TTCCAGTGGTGGGTCC (sugars k3 d10 k3, PS) | – | 29% | – |
| CATTTTATCATCCGAA (sugars k3 d10 k3, PS) | – | 55% | – |
| AGCCCAAAGTTACATC (sugars k3 d10 k3, PS) | – | 42% | – |
| TTTATCATCCGAAAAG (sugars k3 d10 k3, PS) | 7% | – | – |
| GGCACAGCCGTCCGCC (sugars k3 d10 k3, PS) | – | 11% | – |
| ATTTTTTGGTTAGTCC (sugars k3 d10 k3, PS) | – | 53% | – |
| TGTGATAGCTGAGCTG (sugars kkdddddddddkekek, PS) | 17% | – | – |
| CCTCAGACTGTGCTGC (sugars k3 d10 k3, PS) | – | 30% | – |
| TGCTGCAAATCCCTCT (sugars k3 d10 k3, PS) | 21% | – | – |
| GTGTGCTTGCCAAGCC (sugars kkddddddddddkeke, PS) | 37% and 47% | – | – |
| GAGGACCTCGCCTGCG (sugars k3 d10 k3, PS) | – | -2% | – |
| AAGGTCTGAGAGCCTT (sugars k3 d10 k3, PS) | – | 17% | – |
| TCAAATCGACTGCCAC (sugars k3 d10 k3, PS) | – | 54% | – |
| TCAGCTCCACTGTTAA (sugars k3 d10 k3, PS) | – | 73% | – |
| GCCAAAGTGACTTAAT (sugars k3 d10 k3, PS) | – | 70% | – |
| GACAAGTGGCGCAGAC (sugars k3 d10 k3, PS) | – | 11% | – |
| CTGAACTGTGTAACTC (sugars k3 d10 k3, PS) | – | 28% | – |
| TCAATAATCTCCCAGC (sugars k3 d10 k3, PS) | – | 55% | – |
| CTGGCTCCGCTCAACC (sugars k3 d10 k3, PS) | – | 52% | – |
| GCCCAGCAAGAGGCAC (sugars k3 d10 k3, PS) | – | 7% | – |
| GAAGCACTGGCATTGA (sugars k3 d10 k3, PS) | – | 55% | – |
| GAGAGCCTTCACGCAC (sugars k3 d10 k3, PS) | – | 23% | – |

| Sequence | target mRNA inhibition (MM.1R, 1 µM) | target mRNA inhibition (SK-MEL-28, 4 µM) | also measured |
| --- | --- | --- | --- |
| AAGCACTGGCATTGAG (sugars k3 d10 k3, PS) | – | 42% | – |
| CATTACGAGAGGGTCT (sugars k3 d10 k3, PS) | – | 44% | – |
| TTCTACAAGGTCTGAG (sugars k3 d10 k3, PS) | – | 47% | – |
| ACTCAATGTGCACCTT (sugars k3 d10 k3, PS) | – | 29% | – |
| CTGGAGAGCAATGAAC (sugars k3 d10 k3, PS) | – | 67% | – |
| TTTAAAATATCGCCCA (sugars k3 d10 k3, PS) | -1% | – | – |
| AATGTTCAGCTTTTCC (sugars k3 d10 k3, PS) | – | 63% | – |
| TTCATGTAAAGTCTGC (sugars kkdddddddddekeke, PS) | 32% and 39% | – | – |
| CCTCAGGGAATCCCTT (sugars k3 d10 k3, PS) | – | 30% | – |
| TGCGAGTACCCAAGAC (sugars k3 d10 k3, PS) | – | 59% | – |
| CGCCTTAATGTTCAGC (sugars k3 d10 k3, PS) | – | 66% | – |
| TCCTTTAGTGTCGCCA (sugars k3 d10 k3, PS) | – | 76% | – |
| CAGTCAAAGATTCATT (sugars k3 d10 k3, PS) | – | 40% | – |
| GAACACACCACTATTC (sugars k3 d10 k3, PS) | -20% | – | – |
| TTCATAGCTAGTTCAT (sugars k3 d10 k3, PS) | – | 44% | – |
| TACTGCTTGAGGTTTT (sugars kkddddddddddkeke, PS) | 11% | – | – |
| AAGTTCATGTAAAGTC (sugars k2 d9 e3 k2, PS) | 21% and 3% | – | – |
| GACACTTTTAGAGAGG (sugars kkdddddddddekeke, PS) | 22% | – | – |
| GCACTCTTACTCCGCT (sugars k3 d10 k3, PS) | 2% | – | – |
| CCTCAGTTTGTGAAGC (sugars kkdddddddddkekek, PS) | 15% | – | – |
| GAAGTTTACACTGGAT (sugars kkdddddddddkekek, PS) | 55% | – | target mRNA inhibition (MM.1R, 0.074 µM): 6%; target mRNA inhibition (MM.1R, 0.222 µM): 22%; target mRNA inhibition (MM.1R, 0.666 µM): 49%; target mRNA inhibition (MM.1R, 2 µM): 75% |
| TTGGCCTGCCGGCCTG (sugars k3 d10 k3, PS) | – | 4% | – |
| TCGCAGGCAGTTGTGC (sugars k3 d10 k3, PS) | – | -20% | – |
| AGTGTCTAAAGTCCCA (sugars kddddddddddkekek, PS) | -1% and 3% | – | – |
| AATAAAATGTCACGCC (sugars k3 d10 k3, PS) | 20% | – | – |
| CTGCATTTGCAAATAA (sugars k4 d8 k4, PS) | – | -8% | – |

| Sequence | target mRNA inhibition (MM.1R, 1 µM) | target mRNA inhibition (SK-MEL-28, 4 µM) | also measured |
| --- | --- | --- | --- |
| GAAGCATTTTATCATC (sugars kdddddddddkekeke, PS) | 4% | – | – |
| TGGTACGGGATTTCCG (sugars k3 d10 k3, PS) | – | 37% | – |
| ACTACCTGCAGCCAAG (sugars k3 d10 k3, PS) | 4% | – | – |
| GTCACAAAGCAATTGA (sugars k3 d10 k3, PS) | – | 67% | – |
| GGCTCTGCAAACGACA (sugars k3 d10 k3, PS) | 0% | – | – |
| GGGATTATATACTGGT (sugars k2 d9 e3 k2, PS) | 35% | – | – |
| CACATCAATGTTTTAG (sugars kkdddddddddkekek, PS) | 19% and 34% | – | – |
| CACAGGCGCGGACGCA (sugars k3 d10 k3, PS) | – | 14% | – |
| CAAAACGGACTGGAAC (sugars k3 d10 k3, PS) | – | 16% | – |
| CGTCATGGGACATTGG (sugars k3 d10 k3, PS) | – | 56% | – |
| GACATATTTGCTTTGG (sugars k3 d10 k3, PS) | – | 58% | – |
| ACTTTTAGAGAGGAGA (sugars kkdddddddddkdkdk, PS) | 34% | – | – |
| ATGTAAGTGATAGGTA (sugars k3 d10 k3, PS) | – | 70% | – |
| GAAGCATTTTATCATC (sugars kkdddddddddkekek, PS) | -20% | – | – |
| CTTGTTCAAAGCGCAC (sugars k3 d10 k3, PS) | – | 32% | – |
| CTCATCACCGAACACA (sugars k3 d10 k3, PS) | 8% | – | – |
| AGGCACATCAATGTTT (sugars k2 d9 e3 k2, PS) | 36% and 43% | – | – |
| GGCACATCAATGTTTT (sugars kkdddddddddkekek, PS) | 23% and 19% | – | – |
| GGACAGCCAAACAAAC (sugars k3 d10 k3, PS) | – | 7% | – |
| AGCTGCCACTGGTAAC (sugars k3 d10 k3, PS) | 0% | – | – |
| GCATGTTCCTCAAAGC (sugars k3 d10 k3, PS) | – | 76% | – |
| TGATAGCTGAGCTGAT (sugars kkdddddddddekeke, PS) | 15% | – | – |
| ACAGAGGACTTCGGGA (sugars k3 d10 k3, PS) | – | -36% | – |
| AAGCATTTTATCATCC (sugars e1 k2 d9 k2 e2, PS) | 14% | – | – |
| CTGGCATCGAGACGGG (sugars k3 d10 k3, PS) | – | 47% | – |
| TTGCAGAGCAATTTAC (sugars k3 d10 k3, PS) | – | 50% | – |
